Source: patent US20240189275A1, “METHODS FOR TREATING NON-ALCOHOLIC STEATOHEPATITIS WITH A SCD-1 INHIBITOR” (Lipidio Pharmaceuticals, Inc., priority 2021, published 2024)

Test system: diet-induced and biopsy-confirmed mouse model of NASH
Experiment: Liver histology (NAS, fibrosis stage, quantitative histomorphometry) in GAN diet-induced, biopsy-confirmed mouse model of NASH
Format: in vivo, mice
Conditions: for number of mice with worsening (higher score) of Fibrosis Stage: placebo gel 7/16; for liver content (in mg) of α-SMA, antibody-stained sections / liver Galectin-3 content (in mg), antibody-stained sections / liver lipid content (hematoxylin and eosin-stained sections): week 12; for number of animals experiencing an improvement in NAS: topical, p<0.05 compared to placebo
Method: The effects of topical treatment of Compound 25 to 10% of the skin for 12 weeks were assessed in a diet-induced and biopsy-confirmed mouse model of NASH described in the literature (World Journal of Gastroenterology (2019), 25(33), 4904-4920). In this model, NASH is induced by maintaining mice on a high fat-high fructose diet (the so-called GAN [Novel Gubra Amylin] diet) for 33 weeks prior to drug administration. […] This biopsy is then compared to a post-drug treatment biopsy to assess changes in NAFLD activity and Fibrosis Stage. Qualitative scoring is completed with quantitative immunohistochemistry to assess effects on hepatic steatosis, inflammation (Galectin-3), fibrosis (Collagen 1a1 and Picro-Sirius Red Staining) and stellate cell activation (α-SMA). RNASeq was also performed on terminal liver samples from mice treated with placebo gel and compound 25 gel to examine key candidate genes involved in extracellular matrix formation (ECM) and fibrogenesis. Parametric (ANOVA) and non-parametric (Fisher's or Chi Square) statistics were used to analyze the data as appropriate.
SCD-1 inhibitor compounds can be tested in vivo in a rodent diet-induced model of biopsy-confirmed NASH. In this experiment, the NASH phenotype is induced by maintaining mice upon a GAN diet for 33 weeks prior to drug administration (BMC Gastroenterology (2020), 20(1), 210; World Journal of Gastroenterology (2019), 25(33), 4904-4920). A biopsy is performed prior to drug treatment to eliminate any mice that have not developed the NASH phenotype and to mirror clinical trial design where liver biopsies prior to and at the end of treatment are compared. In addition to pre- and post-treatment histological analyses, metabolic assessments such as body weight, body composition, food intake and clinical chemistries are measured during and following the 12-week study dosing period.
Mice were dosed topically to 10% of the total BSA of the skin with either a placebo gel or a gel containing compound 25 (at a concentration of 0.05%, 0.25%, 0.75%, or 2.5%). (World Journal of Gastroenterology (2018), 24(2), 179-194).
Animals and Diet: The Danish Animal Experiments Inspectorate approved all experiments which were conducted using internationally accepted principles for the use of laboratory animals under the personal license #2013-15-2934-00784. B6.V-Lepob/JRj (ob/ob) mice (6 weeks old) were from Janvier Labs (Le Genest Saint Isle, France) and housed in a controlled environment (12h light/dark cycle, lights on at 3 AM, 21+2° C., humidity 50+10%). Each animal was identified by an implantable subcutaneous microchip (PetID Microchip, E-vet, Haderslev, Denmark). Mice had ad libitum access to tap water and the Gubra Amylin NASH diet [GAN diet; 40 kcal-% fat (of these 0% trans-fat and 46% saturated fatty acids by weight), 22% fructose, 10% sucrose, 2% cholesterol; D09100310, Research Diets]. Mice were maintained on the GAN diet for 33 weeks prior to study initiation to induce NASH and remained on the GAN diet during the 12 weeks of drug administration. Mice were weighed daily during the study and body composition was measured by non-invasive EchoMRI scanning using EchoMRI-900 (EchoMRI, Houston, TX).
Liver Biopsy: After 33 weeks of GAN diet feeding, mice were anesthetized with isoflurane (2%-3%, in 100% oxygen), a small abdominal incision in the midline was made, and the left lateral lobe of the liver was exposed. A cone-shaped wedge of liver tissue (50-100 mg) was excised from the distal part of the lobe. The cut surface of the liver was closed by electrosurgical bipolar coagulation using an electrosurgical unit (ERBE VIO® 100C, ERBE, Marietta, GA, United States). The liver was returned to the abdominal cavity, the abdominal wall was sutured and skin stapled. Carprofen (5 mg/kg, i.p.) was administered at the time of surgery and at post-operative day one and two. […]

[1] = 0.75% and 2.5% dose groups (group not specified), 16 animals per group, 12 weeks
[2] = conclusion, topical to 10% of BSA, dose not specified

Compound: O=C(COc1ccc(CO)cc1)N1CC[C@H](Oc2ccccc2C(F)(F)F)C1 [Compound 25, (S)-2-(4-(hydroxymethyl)phenoxy)-1-(3-(2-(trifluoromethyl)phenoxy)pyrrolidin-1-yl)ethan-1-one]
- number of mice with worsening (higher score) of Fibrosis Stage (0.25% gel, 12 weeks): 2/16
- liver content (in mg) of α-SMA, antibody-stained sections (0.25% gel, p<0.05): significantly reduced
- proportion of mice exhibiting any worsening of the fibrosis stage (0.25%, 0.75% and 2.5% gel groups, 12 weeks, placebo almost 50%): 6-12%
- animals showing a higher NAS score [1]: none
- animals with a lower NAS score [1]: 15/16
- liver content of Collagen 1a1 (in mg), antibody-stained sections (0.75% gel, 12 weeks, p<0.05): significant reduction
- liver content of Picro-Sirius Red (in mg) (0.75% gel, 12 weeks, p<0.05): significantly reduced
- number of mice with worsening (higher score) of Fibrosis Stage (0.75% gel, 12 weeks): 2/16
- number of animals experiencing an improvement in NAS (0.75% gel, 12 weeks): significantly greater
- liver content (in mg) of α-SMA, antibody-stained sections (0.75% gel, p<0.01): significantly reduced
- liver Galectin-3 content (in mg), antibody-stained sections (0.75% gel, p<0.05): significantly reduced
- liver lipid content (hematoxylin and eosin-stained sections) (0.75% gel, p<0.05): significantly reduced
- liver content of Picro-Sirius Red (in mg) (2.5% gel, 12 weeks, p<0.001): significantly reduced
- liver content of Collagen 1a1 (in mg), antibody-stained sections (2.5% gel, 12 weeks, p<0.01): significant reduction
- number of mice with worsening (higher score) of Fibrosis Stage (2.5% gel, 12 weeks): 1/16
- number of animals experiencing an improvement in NAS (2.5% gel, 12 weeks): significantly greater
- liver Galectin-3 content (in mg), antibody-stained sections (2.5% gel, p<0.001): significantly reduced
- liver content (in mg) of α-SMA, antibody-stained sections (2.5% gel, p<0.001): significantly reduced
- liver lipid content (hematoxylin and eosin-stained sections) (2.5% gel, p<0.001): significantly reduced
- liver content of Collagen 1a1 (in mg), antibody-stained sections (all doses (0.05%, 0.25%, 0.75%, 2.5% gel), 12 weeks): clear trend in reduction
- multiple quantitative markers of collagen (Collagen 1a1 immunohistochemistry; PSR staining; Collagen 1a1, 3a1, 4a1 mRNA) (conclusion, dose not specified): decreased
- α-SMA expression (stellate cell activation) (conclusion, dose not specified): decreased
- fibrosis stage [2]: prevented worsening
- hepatic steatosis [2]: improved
- inflammation [2]: decreased
- overall NAFLD Activity Score or NAS [2]: improved
